Here are results for 24 compounds from patent US20160158200A1, “Combinations of Hepatitis C Virus Inhibitors” (priority 2013, published 2016).

For test [1], the system named is HCV genotype 1a L31V variant with leucine 31 changed to valine in the NS5A protein. Description: microbe, parasite or virus in culture. The class given is cell-based. The note with it: genotype 1a L31V replicon; test compound titrated with compound N47 fixed at 200 nM versus singly.
Test [2] relates to HCV genotype 1a Y93H variant with tyrosine 93 changed to histidine in the NS5A protein. Description: microbe, parasite or virus in culture. Conditions: genotype 1a Y93H replicon; test compound titrated with compound N47 fixed at 200 nM versus singly. The class given is cell-based. In a few lines: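 In an HCV genotype 1a replicon cell-based assay carrying the NS5A Y93H substitution, BMS-790052 was tested alone and in combination with a fixed amount of a second test compound. The combinations were examined for synergistic activity.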

Turning to `O=C(c1nc(Cl)cc2ccccc12)N1CCC[C@H]1c1nc2ccc(C#Cc3ccc4nc([C@@H]5CCCN5C(=O)c5nc(Cl)cc6ccccc56)[nH]c4c3)cc2[nH]1`, the “Fold-Synergistic G-1a (L31V)” value in test [1] is reported as <10 fold. In addition, in test [2], the “Fold-Synergistic G-1a (Y93H)” value was <10 fold.

As for `O=C(Nc1ccc(/C=C/c2ccc(NC(=O)[C@@H]3CCCN3C(=O)Cc3cccnc3)nc2)cn1)[C@@H]1CCCN1C(=O)Cc1cccnc1`, the “Fold-Synergistic G-1a (L31V)” value in test [1] is recorded as <10 fold. Also, the “Fold-Synergistic G-1a (Y93H)” value in test [2] was <10 fold.

For `O=C(Cc1ccccc1)N1CCC[C@H]1c1nc2cc(C#Cc3ccc4nc([C@@H]5CCCN5C(=O)Cc5ccccc5)[nH]c4c3)ccc2[nH]1`, the “Fold-Synergistic G-1a (L31V)” value in test [1] is <10 fold. For the same compound, the “Fold-Synergistic G-1a (Y93H)” value in test [2] is listed as <10 fold.

For `COC(=O)N[C@H](C(=O)N1[C@@H]2C[C@@H]2C[C@H]1c1ncc(-c2ccc(-c3ccc4cc(-c5cnc([C@@H]6C[C@H]7C[C@H]7N6C(=O)[C@@H](NC(=O)OC)C(C)C)[nH]5)ccc4c3)cc2)[nH]1)C(C)C`, the “Fold-Synergistic G-1a (L31V)” value in test [1] is listed as <10 fold. Also, in test [2], the “Fold-Synergistic G-1a (Y93H)” value is on record as >10 fold.

As for `O=C1[C@@H]2CCCN2C(=O)C(c2ccccc2)N1c1ccc(/C=C/c2ccc(N3C(=O)[C@@H]4CCCN4C(=O)C3c3ccccc3)cc2)cc1` (stereo partly drawn), in test [1], the “Fold-Synergistic G-1a (L31V)” value is given as <10 fold. The “Fold-Synergistic G-1a (Y93H)” value in test [2] is recorded as <10 fold.

Take `COC(=O)N[C@H](C(=O)N1CCC[C@H]1c1ncc(-c2cccc(C#Cc3cccc(-c4cnc([C@@H]5CCCN5C(=O)[C@@H](NC(=O)OC)C(C)C)[nH]4)c3)c2)[nH]1)C(C)C`: in test [1], the “Fold-Synergistic G-1a (L31V)” value was >10 fold. The “Fold-Synergistic G-1a (Y93H)” value in test [2] is reported as >10 fold.

With `COC(=O)N[C@H](C(=O)N1CCC[C@H]1c1nc(-c2ccc(C#Cc3ccc4[nH]c([C@@H]5CCCN5C(=O)[C@@H](NC(=O)OC)C(C)C)nc4c3)cc2)c[nH]1)C(C)C`, in test [1], the “Fold-Synergistic G-1a (L31V)” value is >100 fold. Further, the “Fold-Synergistic G-1a (Y93H)” value in test [2] is on record as >100 fold.

For `O=C(Nc1ccc(-c2ccc(NC(=O)[C@@H]3CCCN3C(=O)Cc3ccccc3)cc2)cc1)[C@@H]1CCCN1C(=O)Cc1ccccc1`, the “Fold-Synergistic G-1a (L31V)” value in test [1] is <10 fold. The “Fold-Synergistic G-1a (Y93H)” value in test [2] is reported as <10 fold.

Consider `CCC1(c2ccc(NC(=O)[C@@H]3C[C@H]4C[C@H]4N3C(=O)[C@@H](NC(=O)OC)C(C)C)cc2)CC2C3CC4CC(c5ccc(NC(=O)[C@@H]6C[C@H]7C[C@H]7N6C(=O)[C@@H](NC(=O)OC)C(C)C)cc5)(C3)CC2C4C1` (stereo partly drawn), for which, in test [1], the “Fold-Synergistic G-1a (L31V)” value is <10 fold. Moreover, in test [2], the “Fold-Synergistic G-1a (Y93H)” value is <10 fold.

As for `COC(=O)N[C@H](C(=O)N1C[C@@H](C)C[C@H]1c1ncc(-c2ccc(-c3ccc(-c4cnc([C@@H]5C[C@H](C)CN5C(=O)[C@@H](NC(=O)OC)C(C)C)[nH]4)cc3)cc2)[nH]1)C(C)C`, in test [1], the “Fold-Synergistic G-1a (L31V)” value is on record as >10 fold. Moreover, in test [2], the “Fold-Synergistic G-1a (Y93H)” value is reported as >100 fold.

Take `COC(=O)N[C@H](C(=O)N1[C@@H]2C[C@@H]2C[C@H]1c1ncc(-c2ccc(C#Cc3ccc(-c4cnc([C@@H]5C[C@H]6C[C@H]6N5C(=O)[C@@H](NC(=O)OC)C(C)C)[nH]4)cc3)cc2)[nH]1)C(C)C`: the “Fold-Synergistic G-1a (L31V)” value in test [1] was <10 fold. Besides, in test [2], the “Fold-Synergistic G-1a (Y93H)” value is given as >10 fold.

Regarding `COC(=O)N[C@H](C(=O)N1CCC[C@H]1c1ncc(C#Cc2ccc(-c3ccc4nc([C@@H]5CCCN5C(=O)[C@@H](NC(=O)OC)C(C)C)[nH]c4c3)cc2)[nH]1)C(C)C`, the “Fold-Synergistic G-1a (L31V)” value in test [1] is reported as >100 fold. The “Fold-Synergistic G-1a (Y93H)” value in test [2] is >100 fold.

Take `CC(=O)N1CCC[C@H]1C(=O)Nc1ccc(-c2nc(-c3ccc(NC(=O)[C@@H]4C=CCN4C(=O)Cc4ccccc4)cc3)cs2)cc1`: in test [1], the “Fold-Synergistic G-1a (L31V)” value was <10 fold. The “Fold-Synergistic G-1a (Y93H)” value in test [2] was <10 fold.

Turning to `COC(=O)N[C@H](C(=O)N1CCOC[C@H]1c1nc(-c2ccc(-c3ccc4cc(-c5c[nH]c([C@@H]6COCCN6C(=O)[C@@H](NC(=O)OC)C(C)C)n5)ccc4c3)cc2)c[nH]1)C(C)C`, the “Fold-Synergistic G-1a (L31V)” value in test [1] is >10 fold. For the same compound, the “Fold-Synergistic G-1a (Y93H)” value in test [2] is >10 fold.

`COC(=O)N[C@@H](C(=O)N1CCC[C@H]1c1ncc(-c2ccc(-c3ccc(-c4cnc([C@@H]5CCCN5C(=O)[C@H]5CCCO5)[nH]4)cc3)cc2)[nH]1)c1ccccc1`: the “Fold-Synergistic G-1a (L31V)” value in test [1] is on record as <10 fold. In addition, the “Fold-Synergistic G-1a (Y93H)” value in test [2] is recorded as <10 fold.

In the case of `COC(=O)N[C@H](C(=O)N1C[C@@H](C)C[C@H]1c1ncc(-c2ccc(-c3ccc4cc(-c5cnc([C@@H]6C[C@H](C)CN6C(=O)[C@@H](NC(=O)OC)C(C)C)[nH]5)ccc4c3)cc2)[nH]1)C(C)C`, in test [1], the “Fold-Synergistic G-1a (L31V)” value was <10 fold. Further, the “Fold-Synergistic G-1a (Y93H)” value in test [2] is recorded as >10 fold.

Regarding `COC(=O)N[C@H](C(=O)N1[C@H](c2ncc(-c3ccc(-c4ccc(-c5cnc([C@@H]6C[C@H](C)[C@H](C)N6C(=O)[C@@H](NC(=O)OC)C(C)C)[nH]5)cc4)cc3)[nH]2)C[C@H](C)[C@@H]1C)C(C)C`, in test [1], the “Fold-Synergistic G-1a (L31V)” value is >100 fold. Moreover, the “Fold-Synergistic G-1a (Y93H)” value in test [2] is given as >100 fold.

Take `COC(=O)N[C@H](C(=O)N(C)[C@@H](C)c1ncc(-c2ccc(C#Cc3ccc(-c4cnc([C@H](C)N(C)C(=O)[C@@H](NC(=O)OC)C(C)C)[nH]4)cc3)cc2)[nH]1)C(C)C`: the “Fold-Synergistic G-1a (L31V)” value in test [1] is >10 fold. Further, the “Fold-Synergistic G-1a (Y93H)” value in test [2] is recorded as <10 fold.

With `O=C1C(c2ccccc2)N(c2ccc(-c3cnc(-c4ccc(N5C(=O)C6CCCN6C(=O)C5c5ccccc5)cc4)o3)cc2)C(=O)C2CCCN12` (stereo not drawn), the “Fold-Synergistic G-1a (L31V)” value in test [1] is recorded as <10 fold. Besides, the “Fold-Synergistic G-1a (Y93H)” value in test [2] is reported as <10 fold.

As for `COC(=O)N[C@H](C(=O)N1CCC[C@H]1c1nc(-c2cccc(-c3ccc4nc([C@@H]5CCCN5C(=O)[C@@H](NC(=O)OC)C(C)C)[nH]c4c3)c2)c[nH]1)C(C)C`, the “Fold-Synergistic G-1a (L31V)” value in test [1] was <10 fold. The “Fold-Synergistic G-1a (Y93H)” value in test [2] is <10 fold.

For the compound `COC(=O)N[C@H](C(=O)N1[C@@H]2C[C@@H]2C[C@H]1c1ncc(-c2ccc(-c3ccc4nc(-c5cnc([C@@H]6C[C@H]7C[C@H]7N6C(=O)[C@@H](NC(=O)OC)C(C)C)[nH]5)ccc4c3)cc2)[nH]1)C(C)C`, in test [1], the “Fold-Synergistic G-1a (L31V)” value is on record as <10 fold. The “Fold-Synergistic G-1a (Y93H)” value in test [2] is >10 fold.

As for `COC(=O)N[C@H](C(=O)N1CCCC[C@H]1c1nc(-c2ccc(-c3ccc4cc(-c5c[nH]c([C@@H]6CCCCN6C(=O)[C@@H](NC(=O)OC)C(C)C)n5)ccc4c3)cc2)c[nH]1)C(C)C`, in test [1], the “Fold-Synergistic G-1a (L31V)” value is recorded as >10 fold. Besides, the “Fold-Synergistic G-1a (Y93H)” value in test [2] is <10 fold.

Regarding `COC(=O)N[C@H](C(=O)N1[C@H](c2nc(-c3ccc(-c4ccc(-c5c[nH]c([C@@H]6C[C@@H]7CCC[C@@H]7N6C(=O)[C@@H](NC(=O)OC)C(C)C)n5)cc4)cc3)c[nH]2)C[C@@H]2CCC[C@@H]21)C(C)C`, in test [1], the “Fold-Synergistic G-1a (L31V)” value is on record as >100 fold. The “Fold-Synergistic G-1a (Y93H)” value in test [2] is on record as >100 fold.

Turning to `COC(=O)N[C@H](C(=O)N1[C@@H]2C[C@@H]2C[C@H]1c1ncc(-c2ccc([C@H]3C[C@@H]3c3ccc(-c4cnc([C@@H]5C[C@H]6C[C@H]6N5C(=O)[C@@H](NC(=O)OC)C(C)C)[nH]4)cc3)cc2)[nH]1)C(C)C`, the “Fold-Synergistic G-1a (L31V)” value in test [1] is >10 fold. In addition, the “Fold-Synergistic G-1a (Y93H)” value in test [2] was <10 fold.
